According to EP0409236A1, “Optically active naphthylethanol derivative” (Eisai Co., Ltd., priority 1989, dated 1991):
Several values for one entry are separate records, joined by “and”; a condition that tells them apart may be missing. Equal values may be shown once. Where a name gives a salt, the structure may show the parent alone.

Experiments:
[1] = test system: pyramidal cells in the CA1 region of the gerbil hippocampus; experiment: Effect on ischemia-induced neuronal damage in the gerbil hippocampus; type: in vivo; details: i.p., one hour before 5-min ischemia, normal pyramidal cells in 0.105 x 1.175 mm² of CA1, one week later
Description: Effect on ischemia-induced neuronal damage in the gerbil hippo- campus
Kirino reported that a brief cerebral ischemia caused the destruction of the pyramidal cells in the CA1 region of the gerbil hippocampus [Brain Res. 239: 57-69 (1982)]. Effect of the compound(B) on this ischemia-induced neuronal damage was examined.
The compounds were intraperitoneally administered to each animal and one hour later 5-min ischemia was produced by clamping both common carotid arteries. One week after the 5-min ischemia gerbils were fixed by transcardiac perfusion of fixative which consisted of 4% formaldehyde in phosphate buffer (pH 7.4). The fixed brain was embedded in paraffin and semi-thin (3 µm) sections were cut at a level of the dorsal hippocampus. The sections were stained with feulgen for cell counting by an image-analyzing computer. Normal pyramidal cells in the area of 0.105 x 1.175 mm² were counted.

[2] = test system: male ddy mice; experiment: Effect on KCN-induced mortality in mice; details: mouse, in vivo; hydrochloride

| Molecule | neuronal density mean ± SEM ([1]; 1 mg/kg) | neuronal density mean ± SEM ([1]; 3 mg/kg) | neuronal density mean ± SEM ([1]; 10 mg/kg) | Survival time (sec) mean ± SEM [2] | neuronal density mean ± SEM ([1]; 30 mg/kg) |
| --- | --- | --- | --- | --- | --- |
| O=C(c1ccc(F)cc1)C1CCN(C[C@@H](O)c2ccc3ccccc3c2)CC1 [d-isomer of compound (B), hydrochloride] | 9.3 ± 4.6 | 16.5 ± 4.0 | 34.6 ± 1.1 | 52.4 ± 2.4 s and 50.1 ± 1.6 s and 62.5 ± 4.4 s | – |
| (R)-(-)-2-[4-(p-Fluorobenzoyl)-1-piperidylj-1-naphthylethanol hydrochloride [ℓ-isomer of compound (B)] | – | 1.9 ± 0.5 | 17.2 ± 5.2 | 40.2 ± 1.8 s and 43.0 ± 1.8 s and 44.8 ± 1.9 s | 12.0 ± 3.4 |
